Source: patent publication US3944549A, “Amino derivatives of 1,4-benzodioxan” (priority 1972, dated 1976)
Counter-ions that a name gives are not always drawn.

Legend:
adrenergic receptors = test: α-blocking action: reversal of the hypertensive effect of adrenalin; assay type: in vivo, dogs
digestive ulcers = details: TOLDY et al. 1966; cited from earlier work
[1] = tested on: vertebral, femoral and mesenteric artery flow rates; test: Vasodilating and cardiovascular properties on intravenous administration in dogs
Protocol: During the series of pharmacological tests, the following parameters were used:
Arterial pressure (abbreviated to AP): this parameter, expressed in mm Hg) is evaluated in accordance with the usual conditions.
Arterial resistance: this parameter (expressed in dynes/sec./cm^-^5) is calculated according to the ratio [formula] Cardiac index: this parameter is expressed in (ml/min.)/kg. Systolic index: this parameter is equal to the ratio cardiac index/frequency.
Cardiac work: this parameter (expressed in kgm/min.) is calculated according to the relationship: Cardiac work = average AP (mm Hg) × 1.36 = cardiac output (1/min.) × 10^-^3.
Ratio dp/dt: this parameter corresponds to the variation in pressure expressed in mm Hg per second (in English: Rate of rise of left ventricular pressure).
The technique used to measure the ratio dp/dt is as follows:
The cardiac output is determined in Beagle dogs weighing 10 to 15 kg, anesthetised with pentobarbital, by injecting Carbiogreen (1 mg in 0.5 ml) into the right ventricle. A catheter introduced via the carotid artery into the aorta makes it possible to aspirate arterial blood at the rate of 25 ml/min. and to pass it in front of the photoelectric cell of a Beckman cardiodensitometer. The results are interpreted in accordance with the Hamilton method.
(§1) In the case of intravenous administration, the tests were carried out on 4 anaesthetised dogs. The product is perfused intravenously over the course of 5 minutes at doses of 2.5, 5 and 10 mg/kg and, in one test, is administered intraduodenally at a dose of 10 mg/kg.

[2] = Analgesic activity, subcutaneous; assay type: in vivo; details: injected subcutaneously
[3] = Acute toxicity, intravenous, in mice; details: mouse, in vivo
femoral artery = test: Vasodilating properties: injection into the femoral artery in dogs; assay type: in vivo; details: injected locally into the femoral or vertebral artery
Protocol: On injection into the femoral artery, no effect is observed at doses of less than 100 μg/kg. […] At these doses, no effect is observed on the arterial pressure AP measured in accordance with the usual conditions.
When administered intra-arterially, the product of Example 6 is injected directly into the femoral artery. The flow rate is increased by 200% from a dose of 10 μg.

intestinal barrier = test: Intraduodenal administration in dogs: cardiovascular effects and passage through the intestinal barrier; assay type: in vivo; details: intraduodenally
Protocol: as §1

vertebral artery = test: Vasodilating properties: injection into the vertebral artery in dogs; assay type: in vivo; details: injected locally into the femoral or vertebral artery
Protocol: On injection into the vertebral artery, no effect is observed at doses of less than 1 mg/kg. At a dose of 10 mg/kg, the flow rate increases by 37% and at a dose of 20 mg/kg it only increases by 27%. At these two doses, the arterial pressure decreases respectively by 14 and 28% although no effect had been observed during the injection into the femoral artery.

vertigo = test: Vertigo in clinical tests; assay type: in vivo, man
Solubility in water = assay type: physicochemical

SMILES: OCCN1CCN(CC2COc3ccccc3O2)CC1 (stereo not shown) [free base, 1-[2-(1,4-benzodioxanyl)-methyl]-4-(2-hydroxyethyl)-piperazine, reference compound]
- α-blocking activity (counteracting the hypertensive effects of adrenalin) (adrenergic receptors; orally to dogs): does not show any α-blocking activity
- activity in the treatment of digestive ulcers (digestive ulcers): devoid of such activity

SMILES: CC(C)(C)c1ccc2c(c1)OCC(CN1CCN(CCO)CC1)O2 (stereo not shown) [Example 5, 1-[2-(6- or 7-{tertiarybutyl}-1,4-benzodioxanyl)-methyl]-4-(2-hydroxyethyl)-piperazine dihydrochloride]
- dose dependence of femoral vasodilating action ([1]; 2 dogs, i.v.): not proportional to the dose
- dose from which femoral vasodilating action is maximum ([1]; 2 dogs, i.v.): 3.5 mg/kg
- vertebral dilating action ([1]; 2 dogs, i.v.): no vertebral dilating action
- bradycardia ([1]; 2 dogs, i.v., 15 mg/kg (last dose)): a bradycardia
- femoral vasodilating action, maximum ([1]; 2 dogs, i.v., from 3.5 mg/kg, increase (+)): 60%
- effect on the AP ([1]; 2 dogs, i.v., up to 15 mg/kg): no effect on the AP
- vasodilating effect ([1]; summary): exclusively peripheral and very moderate vasodilating effect
- analgesic activity [2]: analgesic activity of the morphine type
- LD50 ([3]; read-out: LD-50 I.V. in mice): 140 ± 8 mg/kg
- NOAEL ([3]; read-out: Maximum non-toxic dose): 100 mg/kg
- femoral flow rate, local injection (femoral artery): increases both these flow rates in proportion to the doses, but with a preference for the femoral flow rate
- minimal effective dose (intestinal barrier; Canis lupus familiaris, intraduodenal, read-out: dose from which the pulse rate decreases): 7 mg/kg
- vasodilating effect (intestinal barrier; successively 3.5, 7, 15 and 35 mg/kg): no vasodilating effect
- vertebral flow rate, local injection (vertebral artery): increases both these flow rates in proportion to the doses, but with a preference for the femoral flow rate

SMILES: OCCN1CCN(CC2COc3ccccc3O2)CC1 (stereo not shown) [Example 1, 1-[2-(1,4-Benzodioxanyl)-methyl]-4-(2-hydroxyethyl)-piperazine dihydrochloride]
- vertigo (vertigo): caused vertigo in the majority of cases
- α-blocking activity (adrenergic receptors; administered parenterally): α-blocking
- solubility in water (Solubility in water): soluble in water
